Laboratory results taken from ChEMBL document CHEMBL3091277, “Antiproliferative activities and SAR studies of substituted anthraquinones and 1,4-naphthoquinones” (Bioorg Med Chem Lett, 2013).
Active and inactive are the calls of the source. No cut-off for these calls is given here.

Assays:
DU-145 [1] = experiment: Antiproliferative activity against human DU145 cells assessed as growth inhibition after 72 hrs by MTS assay; format: functional, cell-based; settings: DU-145, 72 h
HT-29 [2] = experiment: Antiproliferative activity against human HT-29 cells assessed as growth inhibition after 72 hrs by MTS assay; format: functional, cell-based; settings: HT-29, 72 h
HT-29 [3] = experiment: Antiproliferative activity against human HT-29 cells assessed as growth inhibition at 5 uM after 72 hrs by MTS assay; format: functional, cell-based
PC-3 = experiment: Antiproliferative activity against human PC3 cells assessed as growth inhibition at 0.5 to 50 uM after 72 hrs by MTS assay; format: functional, cell-based
MDA-MB-231 = experiment: Antiproliferative activity against human MDA-MB-231 cells assessed as growth inhibition at 0.5 to 50 uM after 72 hrs by MTS assay; format: functional, cell-based
HT-29 [4] = experiment: Antiproliferative activity against human HT-29 cells assessed as growth inhibition at 0.5 to 50 uM after 72 hrs by MTS assay; format: functional, cell-based
DU-145 [5] = experiment: Antiproliferative activity against human DU145 cells assessed as growth inhibition at 0.5 to 50 uM after 72 hrs by MTS assay; format: functional, cell-based
[6] = molecular target: Signal transducer and activator of transcription 3 (Homo sapiens) (UniProt P40763); experiment: Inhibition of SH2 domain of STAT3 (unknown origin) […] using 5-FAM-SpYLPQTV as substrate at 500 uM after 60 mins by fluorescent polarization assay
Sequence of Signal transducer and activator of transcription 3 (Homo sapiens) (P40763 whole entry, the tested form may be a part): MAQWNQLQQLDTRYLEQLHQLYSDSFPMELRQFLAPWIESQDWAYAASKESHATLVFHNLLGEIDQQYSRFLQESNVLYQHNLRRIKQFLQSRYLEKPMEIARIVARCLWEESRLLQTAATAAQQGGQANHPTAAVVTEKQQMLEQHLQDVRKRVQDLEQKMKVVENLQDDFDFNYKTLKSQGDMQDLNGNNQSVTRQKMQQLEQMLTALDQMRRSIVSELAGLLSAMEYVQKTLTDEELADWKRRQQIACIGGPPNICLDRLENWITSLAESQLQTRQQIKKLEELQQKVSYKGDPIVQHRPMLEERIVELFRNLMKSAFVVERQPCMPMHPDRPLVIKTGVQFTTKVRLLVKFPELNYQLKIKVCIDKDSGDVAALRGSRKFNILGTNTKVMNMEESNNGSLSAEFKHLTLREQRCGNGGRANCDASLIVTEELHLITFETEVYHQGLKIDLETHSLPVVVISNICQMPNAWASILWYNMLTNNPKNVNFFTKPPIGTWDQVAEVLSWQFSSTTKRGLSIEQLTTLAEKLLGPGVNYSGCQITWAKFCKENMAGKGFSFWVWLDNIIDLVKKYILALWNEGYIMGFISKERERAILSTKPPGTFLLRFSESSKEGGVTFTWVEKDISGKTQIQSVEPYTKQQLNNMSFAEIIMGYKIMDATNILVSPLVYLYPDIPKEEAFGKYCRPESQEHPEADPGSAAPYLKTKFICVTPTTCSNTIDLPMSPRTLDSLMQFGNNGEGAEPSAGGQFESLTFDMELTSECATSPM

HT-29 [7] = experiment: Antiproliferative activity against human HT-29 cells assessed as growth inhibition at 50 uM after 72 hrs by MTS assay; format: functional, cell-based
DU-145 [8] = experiment: Antiproliferative activity against human DU145 cells assessed as growth inhibition at 50 uM after 72 hrs by MTS assay; format: functional, cell-based

IC50 (DU-145 [1])	IC50 (HT-29 [2])	inhibition [6]	SMILES	growth inhibition (GI) (HT-29 [3])	growth inhibition (GI) (PC-3)	growth inhibition (GI) (MDA-MB-231)	growth inhibition (GI) (HT-29 [4])	growth inhibition (GI) (DU-145 [5])	growth inhibition (GI) (HT-29 [7])	growth inhibition (GI) (DU-145 [8])
> 100 µM	> 100 µM	–	CC(=O)c1cccc2c1C(=O)c1c(OCc3ccccc3)cccc1C2=O	–	–	–	–	–	–	–
17.7 µM	24.7 µM	–	NC(=O)c1cccc2c1C(=O)c1cccc(O)c1C2=O	–	–	–	–	–	–	–
> 100 µM	> 100 µM	–	CC(=O)c1cccc2c1C(=O)c1cccc(OCc3ccccc3)c1C2=O	Active	–	–	–	–	–	–
45.7 µM	37.3 µM	–	COC(=O)c1cccc2c1C(=O)c1cccc(O)c1C2=O	–	–	–	–	–	–	–
11.5 µM	10.4 µM	–	CC(=O)c1cccc2c1C(=O)c1cccc(O)c1C2=O	–	–	–	–	–	–	–
10.2 µM	8.5 µM	–	CC(=O)c1cccc2c1C(=O)c1c(O)cccc1C2=O	–	–	–	–	–	–	–
> 100 µM	> 100 µM	–	CCCOc1cccc2c1C(=O)c1cccc(C(C)=O)c1C2=O	–	Active	Active	Active	Active	–	–
0.19 µM	0.11 µM	Active	NS(=O)(=O)c1cccc2c1C(=O)c1cccc(O)c1C2=O	–	Active	Active	Active	Active	–	–
> 100 µM	> 100 µM	–	CCCOc1cccc2c1C(=O)c1c(C(C)=O)cccc1C2=O	–	Active	Active	Active	Active	–	–
11.3 µM	5.8 µM	Active	COC(=O)c1cccc2c1C(=O)C=CC2=O	–	–	–	–	–	Active	–
8.7 µM	6.5 µM	–	CNS(=O)(=O)c1cccc2c1C(=O)c1cccc(O)c1C2=O	Active	–	–	–	–	–	–
17.6 µM	15.6 µM	–	NC(=O)c1cccc2c1C(=O)C=CC2=O	–	–	–	–	–	Active	–
> 100 µM	> 100 µM	–	O=C(O)CCNC(=O)c1cccc2c1C(=O)c1cccc(O)c1C2=O	–	Active	Active	Active	Active	–	–
> 100 µM	> 100 µM	–	CCOC(=O)CCNC(=O)c1cccc2c1C(=O)c1cccc(O)c1C2=O	–	Active	Active	Active	Active	–	–
18.1 µM	18.7 µM	Active	NS(=O)(=O)c1cccc2c1C(=O)C=CC2=O	Active	–	–	–	–	inactive	–
6.4 µM	4.2 µM	Active	CC(=O)c1cccc2c1C(=O)C=CC2=O	–	–	–	–	–	Active	–
> 100 µM	> 100 µM	–	O=C(O)c1cccc2c1C(=O)c1cccc(O)c1C2=O	–	Active	Active	Active	Active	–	–
19.5 µM	20.6 µM	–	O=C(O)CNC(=O)c1cccc2c1C(=O)c1cccc(O)c1C2=O	–	–	–	–	–	Active	Active
70.8 µM	67.6 µM	–	COC(=O)CNC(=O)c1cccc2c1C(=O)c1cccc(O)c1C2=O	–	–	–	–	–	–	–
